Where two headings read alike, the source gives them in different places. Where no end group is shown, it is not given here.
Experiments:
[1] = target: T1, HLA DRB1 *0802 (Homo sapiens, UniProt P01903+P01911, A100R/A103L/A169T/F76Y/H45Y/I96F/K41T/L162R/M171V/P40S/Q125H/Q178H/Q39Y/Q99D/R218S/R42G/S66Y/V115G/W38E); assay: IC50nM to purified HLA | DRB1 *0802
Method: (§1) Table printed on a drawing sheet, FIG. 1 (contd.)
(§2) Head of the field: IC50nM to purified HLA | DRB1 *0802
(§3) First copying reader's note: Continued from the preceding sheet of FIG. 1; decimal commas are used, the analog names give the substituted residues and positions in PADRE, and some values are printed in italics or bold and some SEQ ID NOs bold and underlined without a legend on this sheet.
(§4) Where the first naming reader finds the target: head: IC50nM to purified HLA | DRB1 *0802

[2] = target: HLA DRB1 *1101 (Homo sapiens, UniProt P01903+P01911, A100R/A169T/A87E/I96F/K41T/L162R/M171V/P40S/Q125H/Q178H/Q39Y/Q99D/R42S/S66Y/T262R/V115G/W38E); assay: IC50nM to purified HLA | DRB1 *1101
Method: as §1
Head of the field: IC50nM to purified HLA | DRB1 *1101
as §3
Where the first naming reader finds the target: head: IC50nM to purified HLA | DRB1 *1101

[3] = target: HLA DRB1 *0301 (Homo sapiens, UniProt P01903+P01911, A100K/A102G/A103R/A169T/F55Y/I96L/K41T/L162R/M171V/P40S/Q125H/Q178H/Q39Y/R42S/S66N/T106N/T262R/W38E/Y61H); assay: IC50nM to purified HLA | DRB1 *0301
Method: as §1
Head of the field: IC50nM to purified HLA | DRB1 *0301
as §3
Where the first naming reader finds the target: head: IC50nM to purified HLA | DRB1 *0301

[4] = target: T2, HLA DRB1 *1302 (Homo sapiens, UniProt P01903+P01911, A100E/A169T/K41T/L162R/M171V/P40S/Q125H/Q178H/Q39Y/Q99D/R42S/S66N/T262R/V115G/W38E/Y61H); assay: IC50nM to purified HLA | DRB1 *1302
Method: as §1
(§5) Head of the field: IC50nM to purified HLA | DRB1 *1302
as §3
(§6) Where the first naming reader finds the target: head: IC50nM to purified HLA | DRB1 *1302

[5] = target: HLA DRB5 *0101 (Homo sapiens, UniProt P01903+Q30154); assay: IC50nM to purified HLA | DRB5 *0101
Method: as §1
Head of the field: IC50nM to purified HLA | DRB5 *0101
as §3
Where the first naming reader finds the target: head: IC50nM to purified HLA | DRB5 *0101

[6] = target: HLA DRB1 *0901 (Homo sapiens, UniProt P01903+P01911, A100R/A103E/D57H/D86V/F55Y/F60I/F76Y/I96F/K127E/L162R/M171V/P40D/Q125H/Q99R/R33Q/R42F/S133A/S66N/T210M/V115G/W38K/Y107V/Y59G/Y89S); assay: IC50nM to purified HLA | DRB1 *0901
Method: as §1
Head of the field: IC50nM to purified HLA | DRB1 *0901
as §3
Where the first naming reader finds the target: head: IC50nM to purified HLA | DRB1 *0901

[7] = target: HLA DRB1 *0401 (Homo sapiens, UniProt P01903+P01911, A100K/A169T/F76Y/I96L/K127E/L162R/M171V/N62H/P40V/Q125Y/R42H/S133A/S149N/S66Y/V115G/V209L/W38E); assay: IC50nM to purified HLA | DRB1 *0401
Method: as §1
Head of the field: IC50nM to purified HLA | DRB1 *0401
as §3
Where the first naming reader finds the target: head: IC50nM to purified HLA | DRB1 *0401

[8] = target: T3, HLA DRB1 *0701 (Homo sapiens, UniProt P01903+P01911, A100R/A102G/A103Q/D57E/D86V/E43K/F76Y/K127E/L162R/M171V/P40G/Q125H/Q99D/R33Q/R42Y/R54Q/S133A/S66F/T210M/V115G/Y107V/Y59L/Y89S); assay: IC50nM to purified HLA | DRB1 *0701
Method: as §1
(§7) Head of the field: IC50nM to purified HLA | DRB1 *0701
as §3
(§8) Where the first naming reader finds the target: head: IC50nM to purified HLA | DRB1 *0701

[9] = system: crude extract from E. coli; assay: In situ protease assay: TNFα variants in E. coli crude extract, SDS-PAGE and Western blot; assay type: in vitro ADME; details: sequence inserted into loop EF of human TNFα, procedure of Example 2
Method: In order to test the protease resistance of selected, good binding PADRE analogues, their sequences were inserted by cloning techniques into a loop (loop EF) in human TNFα. Cell-free protein crude extract from E. coli expressing the modified TNFα molecules was prepared and proteolytic cleavage within the PADRE analogue sequences was analysed by SDS-PAGE followed by immunoblotting.
A synthetic cDNA encoding TNF (Y87S) was used as template. Oligonucleotides encoding PADRE or PADRE analogues were inserted into the template between A185 and E186 by PCR (cf. above). Resulting cDNAs were cloned into pET28b+(Novagen) and transformed into E. coli strain HMS 174. For recombinant expression, the resulting E. coli strains were cultured in fermentors in a defined medium at 37° C. Induction of recombinant expression was initiated by the addition of 1 mM of IPTG and temperature was lowered to 25° C. Cultures were harvested at 4, 8 or 24 h post-IPTG induction. TNFα variants were purified to >90% homogeneity by affinity chromatography using a TNFα specific monoclonal antibody as described in Nielsen et al., (2004), J Biol. Chem. 279:33593-33600. The purified TNFα variants were characterized by MALDI-TOF mass spectrometry to verify their identity and integrity.
In Situ Protease Assay: Analysis of the Protease Resistance of TNF-α Variants Using Western Blot
Aliquots (1 ml) of E. coli cell cultures, expressing the various TNF-α variants to be tested, were centrifuged (5000 g/5 min/5° C.) and the culture medium was discarded. Cell pellets were resuspended in 1 ml of 20 mM Bis-Tris, pH 6.0. Cell disruption was achieved by sonication (4×15 sec at an amplitude of 11 μm with 20 sec pauses between each sonication round). The resulting suspensions were centrifuged (20000 g/30 min/8° C.) and the supernatants (crude extracts) were transferred to fresh tubes. Crude extracts were then analysed for protein content using a Bradford protein assay (Biorad). Equivalent amounts of proteins were loaded onto 4-12% NuPAGE gels (Novex). After SDS-PAGE, proteins were transferred onto nitrocellulose membrane by semi-dry blotting. For immunoreaction, incubation with rabbit TNFα antiserum (1 h; dilution 1:10 000) and with horse radish peroxidase-conjugated secondary antibody (Dako P448) were carried out in Tris 50 mM, NaCl 150 mM, EDTA 5 mM, Igepal 0.1%, gelatine 0.5%. Detection was with ECL™ reagents (GE Healthcare).

[10] = target: HLA DRB1 *0101 (Homo sapiens, UniProt P01903+P01911, A100R/D57E/F55L/F60I/F76Y/I96L/L162R/M171V/P40L/Q125E/R42F/V115G/Y59C); assay: IC50nM to purified HLA | DRB1 *0101
Method: as §1
Head of the field: IC50nM to purified HLA | DRB1 *0101
as §3
Where the first naming reader finds the target: head: IC50nM to purified HLA | DRB1 *0101

[11] = target: T4, HLA DRB1 *0405 (Homo sapiens, UniProt P01903+P01911, A100R/A169T/D86S/F76Y/I96L/K127E/L162R/M171V/N62H/P40V/Q125Y/R42H/S133A/S149N/S66Y/V115G/V209L/W38E); assay: IC50nM to purified HLA | DRB1 *0405
Method: as §1
(§9) Head of the field: IC50nM to purified HLA | DRB1 *0405
as §3
(§10) Where the first naming reader finds the target: head: IC50nM to purified HLA | DRB1 *0405

[12] = target: T2, HLA DRB1 *1302; assay: IC50nM to purified HLA | DRB1 *1302; remark: listed apart in the source
Method: as §1, §5
(§11) First copying reader's note: Continued from an earlier sheet of FIG. 1; decimal commas as printed, analog names encode substituted residues and positions, and some values are printed in italics or bold and some SEQ ID NOs underlined without a legend on this sheet.
as §6

[13] = target: T3, HLA DRB1 *0701; assay: IC50nM to purified HLA | DRB1 *0701; remark: listed apart in the source
Method: as §1, §7, §11, §8

[14] = target: HLA DRB1 *1501 (Homo sapiens, UniProt P01903+P01911); assay: IC50nM to purified HLA | DRB1 *1501
Method: as §1
Head of the field: IC50nM to purified HLA | DRB1 *1501
as §11
Where the first naming reader finds the target: head: IC50nM to purified HLA | DRB1 *1501

[15] = target: T1, HLA DRB1 *0802; assay: IC50nM to purified HLA | DRB1 *0802; remark: listed apart in the source
Method: as §1, §2, §11, §4

[16] = target: T4, HLA DRB1 *0405; assay: IC50nM to purified HLA | DRB1 *0405; remark: listed apart in the source
Method: as §1, §9, §11, §10

[17] = target: HLA DRB4 *0101 (Homo sapiens, UniProt P01903+P13762, G164S); assay: IC50nM to purified HLA | DRB4 *0101
Method: as §1
Head of the field: IC50nM to purified HLA | DRB4 *0101
as §11
Where the first naming reader finds the target: head: IC50nM to purified HLA | DRB4 *0101

[18] = target: HLA DRB1 *0404 (Homo sapiens, UniProt P01903+P01911, A100R/A169T/F76Y/I96L/K127E/L162R/M171V/N62H/P40V/Q125Y/R42H/S133A/S149N/S66Y/V209L/W38E); assay: IC50nM to purified HLA | DRB1 *0404
Method: as §1
Head of the field: IC50nM to purified HLA | DRB1 *0404
as §11
Where the first naming reader finds the target: head: IC50nM to purified HLA | DRB1 *0404

T2 sequence (P01903 26-254 limits assumed, other chains not shown): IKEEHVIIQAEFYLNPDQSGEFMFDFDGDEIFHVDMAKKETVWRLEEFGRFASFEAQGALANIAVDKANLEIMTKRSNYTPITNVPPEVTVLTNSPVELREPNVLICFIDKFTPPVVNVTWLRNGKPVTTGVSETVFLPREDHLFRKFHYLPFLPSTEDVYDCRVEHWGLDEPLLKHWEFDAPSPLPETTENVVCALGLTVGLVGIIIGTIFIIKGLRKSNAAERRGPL
Chain of HLA DRB1 *1101 (P01903 26-254 limits assumed, other chains not shown): as above
Chain of HLA DRB1 *0301 (P01903 26-254 limits assumed, other chains not shown): as above
Chain of HLA DRB4 *0101 (P01903 26-254 limits assumed): as the sequence (P01903 26-254 limits assumed, other chains not shown) above
Chain of HLA DRB4 *0101 (P13762 whole entry G164S): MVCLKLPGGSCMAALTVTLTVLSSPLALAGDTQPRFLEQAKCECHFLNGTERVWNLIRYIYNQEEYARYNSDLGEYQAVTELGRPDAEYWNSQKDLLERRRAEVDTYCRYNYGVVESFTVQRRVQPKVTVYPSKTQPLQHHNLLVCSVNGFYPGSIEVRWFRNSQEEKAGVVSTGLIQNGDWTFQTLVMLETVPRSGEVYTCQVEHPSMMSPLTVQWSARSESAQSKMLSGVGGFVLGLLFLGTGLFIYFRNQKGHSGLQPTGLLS

Row | Sequence | IC50 [1] | IC50 [2] | IC50 [3] | IC50 [4] | IC50 [5] | IC50 [6] | IC50 [7] | IC50 [8] | protease resistance of PADRE analogue sequence [9] | IC50 [10] | IC50 [11] | IC50 [12] | IC50 [13] | IC50 [14] | IC50 [15] | IC50 [16] | IC50 [17] | IC50 [18]
1 | AAAHFVAANTLHAAA [SEQ ID NO: 29] | 17 nM | 22 nM | 361 nM | 47 nM | 33 nM | 37 nM | 4.5 nM | 76 nM | increased resistance towards proteolytic degradation | 4.1 nM | 18 nM |  |  |  |  |  |  | 
2 | AAAIFVAAWTLHAAA [SEQ ID NO: 69] |  |  |  |  |  |  |  |  | increased resistance towards proteolytic degradation |  |  | 891 nM | 78 nM | 9.4 nM | 12 nM | 13 nM | 84 nM | 3.7 nM

Reference: US9789181B2, “PAN-DR binding polypeptides and uses thereof” (Epimmune Inc., priority 2009, dated 2017)
